# Reference: patent US20250145566A1, “PHENETHYLAMINE DERIVATIVES, COMPOSITIONS, AND METHODS OF USE” (Cybin IRL Limited, priority 2022, published 2025)
# “Also recorded” adds a separate entry of the source. Read-outs that look alike come from different tables or passages of the source.
# Legend:
# [1] = target: T1, 5-HT2C (h) (Homo sapiens, UniProt P28335); assay: 5-HT2C (h) agonist effect, IP1 HTRF functional assay; format: cell-based; details: for agonist efficacy at 5-HT2C, in words: EMAX relative to 5-HT
# T1 construct: expressed in transfected cells; host or cells: HEK-293 cells
# T1 sequence (P28335 33-458): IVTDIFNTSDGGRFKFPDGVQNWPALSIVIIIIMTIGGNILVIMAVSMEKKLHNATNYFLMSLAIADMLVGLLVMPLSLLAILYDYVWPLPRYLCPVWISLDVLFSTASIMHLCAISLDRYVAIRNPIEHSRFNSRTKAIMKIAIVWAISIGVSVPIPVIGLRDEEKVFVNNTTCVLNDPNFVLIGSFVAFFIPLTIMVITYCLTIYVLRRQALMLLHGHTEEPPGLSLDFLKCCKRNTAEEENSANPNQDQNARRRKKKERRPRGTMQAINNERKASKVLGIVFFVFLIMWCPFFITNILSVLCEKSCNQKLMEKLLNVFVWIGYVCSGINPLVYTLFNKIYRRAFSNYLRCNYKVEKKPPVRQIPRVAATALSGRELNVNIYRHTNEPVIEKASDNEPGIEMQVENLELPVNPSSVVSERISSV
# [2] = target: T2, MAO-A (Homo sapiens, UniProt P21397); assay: Recombinant human MAO-A in vitro metabolism; format: in vitro ADME; details: for half-life at 1 µM: human, recombinant human MAO-A
# T2 construct: purchased XenoTech (first series); Corning (second series) Corning 456283
# T2 sequence (P21397 1-527): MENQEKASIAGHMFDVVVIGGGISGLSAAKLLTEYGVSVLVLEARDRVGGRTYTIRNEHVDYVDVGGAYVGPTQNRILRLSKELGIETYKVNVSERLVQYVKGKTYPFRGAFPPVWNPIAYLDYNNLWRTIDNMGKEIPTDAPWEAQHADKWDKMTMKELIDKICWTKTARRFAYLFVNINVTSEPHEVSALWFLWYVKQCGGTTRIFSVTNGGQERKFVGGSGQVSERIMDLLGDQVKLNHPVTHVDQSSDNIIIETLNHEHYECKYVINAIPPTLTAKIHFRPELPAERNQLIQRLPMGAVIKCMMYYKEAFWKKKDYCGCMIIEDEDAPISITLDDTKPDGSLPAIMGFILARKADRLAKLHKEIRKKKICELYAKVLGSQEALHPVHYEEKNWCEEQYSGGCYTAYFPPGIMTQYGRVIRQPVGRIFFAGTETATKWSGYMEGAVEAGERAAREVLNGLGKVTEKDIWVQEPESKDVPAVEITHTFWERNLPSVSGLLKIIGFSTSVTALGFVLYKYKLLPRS
# Description: Recombinant human MAO-A. hrMAO-A and MAO control were purchased from XenoTech. The reaction mixture was prepared as described in Table 11. The test compound was added into the reaction mixture at a final concentration of 1 μM. The positive control kynuramine (25 μM) was run simultaneously with the test compound in a separate reaction. The reaction mixture (without test compounds or kynuramine) was equilibrated in a shaking water bath at 37° C. for 5 minutes. The reaction was initiated by the addition of the test compound or kynuramine, and the mixture was incubated in a shaking water bath at 37° C. Aliquots (150 μL) of the test compound reaction mixture were withdrawn at 0, 5, 10, 20, 30, 60, and for some assays at 120 minutes. Aliquots (150 μL) of the positive control reaction mixture were withdrawn at 0 and 30 minutes. Test compound and kynuramine samples were immediately combined with 150 μL of ice-cold 100% acetonitrile containing 0.1% formic acid and internal standard (0.2 μM metoprolol) to terminate the reaction. The samples were then mixed and centrifuged to precipitate proteins. All samples were assayed by LC-MS/MS. The peak area response ratio (PARR) of analyte to internal standard at each time point was compared to the PARR at time 0 to determine the percent remaining at each time point. Half-lives were calculated using GraphPad software, fitting to a single-phase exponential decay equation.
# In a different series of reactions using human MAO-A and MAO-B, a 10 mM stock solution of the test compound was prepared in DMSO. From this stock solution, an intermediate stock solution of 1 mM was prepared by diluting the compound in DMSO and from this intermediate stock solution, a working solution of 0.30 mM was prepared by diluting the compound in ACN:Water (50:50) as cocktail of 2 compounds (30 μL each compound in 40 μL diluent for 100 μL). Following this, a master mix of 0.1 M potassium phosphate buffer and test compound mixture i.e., the non-deuterated and the deuterated analog, were prepared to achieve final drug concentration of 1 μM (0.2% DMSO) for the required number of reactions. The aforementioned master mix was pre-incubated at 37° C. for 5 min. To this master mix, MAO-A (final protein conc. 0.1 mg/mL; Corning Cat #456283; Lot #1173003) or MAO-B (final protein conc. 0.1 mg/mL; Corning Cat #456284; Lot #0318001) was added to initiate the reaction. The samples were then incubated at 37° C. for the desired time points. At each time point (0, 5, 15, 30, 45, 60), 40 μL of the samples were withdrawn and reactions were stopped using 200 μL chilled ACN containing 0.1% formic acid and internal standard Carbamazepine (10 ng/mL). The samples were centrifuged, and the supernatant was analyzed by LC-MS/MS. The percent compound remaining at each time point was calculated with respect to that of the 0 min sample. The data were then analyzed to calculate half-life and intrinsic clearance (CLint). Blank samples were prepared using DMSO (without the test compound).
# [3] = target: T3, 5-HT2B (h) (Homo sapiens, UniProt P41595); assay: 5-HT2B (h) agonist effect, IP1 HTRF functional assay; format: cell-based; details: for agonist efficacy at 5-HT2B, in words: EMAX relative to 5-HT
# T3 construct: expressed in transfected cells; host or cells: CHO cells
# T3 sequence (P41595 whole entry): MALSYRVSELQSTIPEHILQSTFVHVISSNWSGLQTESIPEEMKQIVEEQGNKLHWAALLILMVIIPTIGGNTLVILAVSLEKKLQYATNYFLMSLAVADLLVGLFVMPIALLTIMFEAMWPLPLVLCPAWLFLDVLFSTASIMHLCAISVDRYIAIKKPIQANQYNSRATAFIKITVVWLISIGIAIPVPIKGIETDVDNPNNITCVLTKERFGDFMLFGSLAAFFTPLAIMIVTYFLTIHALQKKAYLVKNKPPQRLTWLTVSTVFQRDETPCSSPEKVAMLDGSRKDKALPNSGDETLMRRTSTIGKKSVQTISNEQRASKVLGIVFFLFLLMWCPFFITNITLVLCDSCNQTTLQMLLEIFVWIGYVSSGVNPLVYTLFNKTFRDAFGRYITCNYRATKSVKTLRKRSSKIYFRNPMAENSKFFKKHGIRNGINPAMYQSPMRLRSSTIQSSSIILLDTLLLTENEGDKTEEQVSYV
# [4] = target: Norepinephrine transporter (Homo sapiens, UniProt P23975); assay: Norepinephrine transporter uptake (h); format: cell-based
# Norepinephrine transporter, sequence (P23975 whole entry): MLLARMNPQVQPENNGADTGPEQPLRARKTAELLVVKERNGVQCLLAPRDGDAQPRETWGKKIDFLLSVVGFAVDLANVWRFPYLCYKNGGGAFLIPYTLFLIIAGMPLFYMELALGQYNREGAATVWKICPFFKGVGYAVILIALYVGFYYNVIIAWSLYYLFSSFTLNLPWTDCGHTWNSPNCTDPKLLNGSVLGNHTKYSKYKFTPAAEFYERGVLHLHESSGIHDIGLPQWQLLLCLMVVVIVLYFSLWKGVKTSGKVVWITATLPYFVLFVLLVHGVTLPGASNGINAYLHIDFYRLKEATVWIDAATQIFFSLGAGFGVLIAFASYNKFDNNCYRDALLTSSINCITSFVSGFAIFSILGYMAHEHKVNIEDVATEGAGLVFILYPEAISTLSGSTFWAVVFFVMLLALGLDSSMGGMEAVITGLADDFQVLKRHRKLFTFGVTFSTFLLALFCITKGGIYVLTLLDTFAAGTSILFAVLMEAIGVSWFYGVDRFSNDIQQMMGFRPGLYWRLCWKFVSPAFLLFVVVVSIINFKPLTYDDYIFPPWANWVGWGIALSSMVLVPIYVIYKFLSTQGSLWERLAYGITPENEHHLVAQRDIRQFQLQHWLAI
# [5] = target: T4, 5-HT2A (h) (Homo sapiens, UniProt P28223); assay: 5-HT2A (h) agonist radioligand [125I](±)DOI binding; details: at 10 μM
# T4 construct: expressed in transfected cells; host or cells: HEK-293 cells
# T4 sequence (P28223 whole entry): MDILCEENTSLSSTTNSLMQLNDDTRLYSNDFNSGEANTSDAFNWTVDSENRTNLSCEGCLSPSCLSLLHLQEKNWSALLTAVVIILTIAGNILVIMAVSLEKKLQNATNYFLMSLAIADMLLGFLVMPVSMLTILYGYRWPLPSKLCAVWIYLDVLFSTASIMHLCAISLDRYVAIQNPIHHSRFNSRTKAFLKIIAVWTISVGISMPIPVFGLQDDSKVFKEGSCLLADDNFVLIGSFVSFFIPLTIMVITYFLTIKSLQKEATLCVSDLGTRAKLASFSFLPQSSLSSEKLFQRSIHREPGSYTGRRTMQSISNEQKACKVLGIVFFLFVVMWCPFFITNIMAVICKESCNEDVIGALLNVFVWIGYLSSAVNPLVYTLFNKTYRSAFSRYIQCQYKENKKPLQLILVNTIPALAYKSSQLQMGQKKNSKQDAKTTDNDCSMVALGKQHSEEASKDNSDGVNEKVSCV
# [6] = target: T1, 5-HT2C (h); assay: 5-HT2C (h) agonist radioligand [125I](±)DOI binding; details: at 10 μM
# Description: (§1) Samples were then analyzed as described above.
# [7] = target: T3, 5-HT2B (h); assay: 5-HT2B (h) agonist radioligand [125I](±)DOI binding; details: at 10 μM
# Description: as §1
# [8] = target: T5, norepinephrine transporter (h) (Homo sapiens, UniProt P23975); assay: norepinephrine transporter (h) binding, [3H]nisoxetine; details: at 10 μM; table calls these values “No Binding”
# T5 construct: expressed in transfected cells; host or cells: CHO cells
# T5 sequence (P23975 whole entry): as the sequence (P23975 whole entry) above
# [9] = target: T6, dopamine transporter (h) (Homo sapiens, UniProt Q01959); assay: dopamine transporter (h) binding, [3H]BTCP; details: at 10 μM; table calls these values “No Binding”
# T6 construct: expressed in transfected cells; host or cells: CHO cells
# T6 sequence (Q01959 whole entry): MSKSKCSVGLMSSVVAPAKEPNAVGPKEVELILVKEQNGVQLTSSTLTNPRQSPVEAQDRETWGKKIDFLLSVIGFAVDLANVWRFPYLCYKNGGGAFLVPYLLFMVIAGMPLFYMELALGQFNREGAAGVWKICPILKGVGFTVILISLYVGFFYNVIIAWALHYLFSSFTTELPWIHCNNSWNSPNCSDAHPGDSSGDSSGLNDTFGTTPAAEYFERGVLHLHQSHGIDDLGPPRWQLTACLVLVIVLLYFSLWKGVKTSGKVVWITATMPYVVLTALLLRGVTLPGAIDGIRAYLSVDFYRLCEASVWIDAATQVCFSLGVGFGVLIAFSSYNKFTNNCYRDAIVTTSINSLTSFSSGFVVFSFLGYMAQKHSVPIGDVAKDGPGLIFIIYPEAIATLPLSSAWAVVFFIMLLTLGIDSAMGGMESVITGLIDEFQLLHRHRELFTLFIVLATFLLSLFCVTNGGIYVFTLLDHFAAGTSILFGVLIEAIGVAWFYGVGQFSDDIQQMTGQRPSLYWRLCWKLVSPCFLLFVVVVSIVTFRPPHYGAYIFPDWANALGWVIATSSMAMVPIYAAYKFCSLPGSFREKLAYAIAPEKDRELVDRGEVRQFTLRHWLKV
# [10] = human recombinant MAO-A, test compound 1 μM, read-out: MAO-A t1/2
Structure (SMILES),"agonist efficacy at 5-HT2C, in words ([1]; tested at 1, 3, 10, 100 μM)","half-life at 1 µM [2, 10]",stability in the presence of MAO-A ([2]; result in words),"agonist efficacy at 5-HT2B, in words ([3]; tested at 1, 3, 10, 100 μM)","efficacy for blocking NE uptake through NET, in words ([4]; tested at 1, 10, 100 μM)",EC50 [1],"Emax at 3 µM ([1]; at 3 μM, relative to 5-HT, read-out: Function 5-HT2C EMAX)","Function 5-HT2C (Gq-IP1, efficacy relative to 5-HT), agonist type ([1]; tested at 1, 3, 10, 100 μM)","Binding 5-HT2A (agonist radioligand), % competition [5]","half-life at 1 µM ([2]; 1 μM test compound, read-out: half-life, MAO-A metabolism)","Binding 5-HT2C (agonist radioligand), % competition [6]","Binding 5-HT2B (agonist radioligand), % competition [7]","Binding NET (antagonist radioligand), % competition [8]",EC50 [3],"Emax at 10 µM ([3]; at 10 μM, relative to 5-HT, read-out: Function 5-HT2B EMAX)","Function 5-HT2B (Gq-IP1, efficacy relative to 5-HT), agonist type ([3]; tested at 1, 3, 10, 100 μM)","Binding DAT (antagonist radioligand), % competition [9]",IC50 [4],"inhibition at 100 µM ([4]; at 100 μM, read-out: Function NET, inhibition of NET)","Function NET (blocking reuptake of NE), efficacy in words ([4]; tested at 1, 10, 100 μM)"
"CC(N)Cc1ccc2c(c1)OCS2 (stereo not drawn) [II-16, 1-(benzo[d][1,3]oxathiol-6-yl)propan-2-amine]",nearly full or full agonist; also recorded: full agonists,> 120 min,stable,nearly full or full agonist; also recorded: full agonists,full efficacy,–,–,–,–,–,–,–,–,–,–,–,–,–,–,–
"NCCc1ccc2c(c1)OCS2 [II-14, 2-(benzo[d][1,3]oxathiol-6-yl)ethan-1-amine]",nearly full or full agonist; also recorded: full agonists,4.09 min,–,nearly full or full agonist; also recorded: full agonists,full efficacy,< 0.75 µM,107%,Full agonist -,93.9% competition,≤ 8 min,94.4% competition,100.3% competition,40.5% competition,< 0.75 µM,100%,Full agonist -,26% competition,~5 µM,92.9%,"Near full efficacy,"
